PMC7576608, “Mechanisms of telomerase inhibition by oxidized and therapeutic dNTPs” (Nature Communications, 2020)
Several values for one entry are separate records, joined by “and”; a condition that tells them apart may be missing. Equal entries are not always repeated.

Molecular target: telomerase (Homo sapiens, UniProt O14746)
Test: Direct telomerase repeat addition assay with radiolabeled dNTPs: dNTP titration, repeat processivity R1/2
Assay type: biochemical
Design: made in house; anti-FLAG immunopurification, eluted with 3xFLAG peptide
Conditions: for Processivity R 1/2: (TTAGGG)3 primer, remaining three natural dNTPs at cellular concentration
Experimental: This preparation, termed super telomerase, has kinetic properties similar to endogenous telomerase (Supplementary Fig. 1)[29]–[31]. […] Repeat processivity was measured using the convention of calculating the number of repeats synthesized before half of the DNA substrates dissociate from telomerase[33] (Supplementary Fig. 2). 8-oxo-dGTP served as a control since it is an established telomerase chain terminator[12].
Fig. 2 Oxidized and therapeutic dNTPs inhibit telomerase processivity. […] The loading control (*) was a ^32P-end labeled 18-mer oligonucleotide. Numbers on the left indicate the number of added repeats; letters on the right indicate template residue. Images are representative of three independent experiments.
The telomerase assay was as described. […] Reactions containing the modified dNTPs (Trilink Biotechnologies) substituted for their natural dNTP analog are indicated in the figure legends. The reactions were started by the addition of 3 μl (~35 fmol) of immunopurified telomerase eluent, incubated at 37 °C for 1 h, then terminated with 2 μl of […] EDTA and heat inactivated at 65 °C for 20 min. ^32P-end labeled 18-mer loading control (8 fmol) was added to the terminated reactions before purification with an Illustra Microspin G-25 column (GE Healthcare). An equal volume of loading buffer (94% formamide, 0.1× TBE, 0.1% bromophenol blue, 0.1% xylene cyanol) was added to the reaction eluent from the G-25 spin column. The samples were heat denatured for 10 min at 100 °C and loaded onto a 14% denaturing polyacrylamide gel (7 M urea, 1× TBE) and electrophoresed for 90 min at constant 38 W. Samples were imaged using a Typhoon phosphorimager (GE Healthcare).
The processivity was calculated as described[40],[67]. Repeat processivity from the direct telomerase extension assays was calculated as R1/2 (equivalent to the half-time for decay in an exponential time course), which represents the median length of DNA product formed, expressed in terms of number of telomere repeats. First, the total volume counts for each product band extend by one or more telomere repeats were obtained using Image Quant TL. The volume counts were then normalized by dividing by the number of radiolabeled guanosines incorporated into the extended products based on the number of repeats added, termed corrected volume (corr vol). The “percent left behind” (%LB) was calculated for each product band by summing the counts for that product band and for every product band below (shorter products), divided by the total counts for the lane, and then multiplied by 100. The natural log of (100−%LB) was calculated and then plotted vs. repeat number for each product length. A linear regression line was fit to the data to determine the slope of the line. The R1/2 value was calculated by dividing −ln(2) by the slope of each fitted line (R1/2 = −ln(2)/slope).
Number of Repeats Number of Repeats Number of Repeats Number of Repeats
Supplementary Fig 2.Telomerase dNTP titrations and processivity calculations. Telomerase reactions were conducted with (TTAGGG) 3 primer 1 and cellular-concentration dNTPs except that the […]
The loading control (LC) was a 32P-end labeled 18-mer. Numbers on the left indicate the number of added repeats. (d) Processivity was calculated as R1/2 (see Methods). (e) The natural log of (100-%LB) was plotted vs repeat number. A straight line was fit to the data and the R1/2 was calculated by dividing –ln(2) by the slope of each line. Plots shown from one experiment. Images ( a-c) and plots ( e) are representative of, and data are mean + s. d. (d) from, three independent experiments. Source data are provided as a Source Data file.
(1 picture or pasted object on this page, not shown here)

[1] = indicated dNTP at 0.5 μM, n1-n3
[2] = 5μM titrated dNTP, telomere repeat 1
[3] = 25μM titrated dNTP, telomere repeat 1

Chain of telomerase (O14746 whole entry): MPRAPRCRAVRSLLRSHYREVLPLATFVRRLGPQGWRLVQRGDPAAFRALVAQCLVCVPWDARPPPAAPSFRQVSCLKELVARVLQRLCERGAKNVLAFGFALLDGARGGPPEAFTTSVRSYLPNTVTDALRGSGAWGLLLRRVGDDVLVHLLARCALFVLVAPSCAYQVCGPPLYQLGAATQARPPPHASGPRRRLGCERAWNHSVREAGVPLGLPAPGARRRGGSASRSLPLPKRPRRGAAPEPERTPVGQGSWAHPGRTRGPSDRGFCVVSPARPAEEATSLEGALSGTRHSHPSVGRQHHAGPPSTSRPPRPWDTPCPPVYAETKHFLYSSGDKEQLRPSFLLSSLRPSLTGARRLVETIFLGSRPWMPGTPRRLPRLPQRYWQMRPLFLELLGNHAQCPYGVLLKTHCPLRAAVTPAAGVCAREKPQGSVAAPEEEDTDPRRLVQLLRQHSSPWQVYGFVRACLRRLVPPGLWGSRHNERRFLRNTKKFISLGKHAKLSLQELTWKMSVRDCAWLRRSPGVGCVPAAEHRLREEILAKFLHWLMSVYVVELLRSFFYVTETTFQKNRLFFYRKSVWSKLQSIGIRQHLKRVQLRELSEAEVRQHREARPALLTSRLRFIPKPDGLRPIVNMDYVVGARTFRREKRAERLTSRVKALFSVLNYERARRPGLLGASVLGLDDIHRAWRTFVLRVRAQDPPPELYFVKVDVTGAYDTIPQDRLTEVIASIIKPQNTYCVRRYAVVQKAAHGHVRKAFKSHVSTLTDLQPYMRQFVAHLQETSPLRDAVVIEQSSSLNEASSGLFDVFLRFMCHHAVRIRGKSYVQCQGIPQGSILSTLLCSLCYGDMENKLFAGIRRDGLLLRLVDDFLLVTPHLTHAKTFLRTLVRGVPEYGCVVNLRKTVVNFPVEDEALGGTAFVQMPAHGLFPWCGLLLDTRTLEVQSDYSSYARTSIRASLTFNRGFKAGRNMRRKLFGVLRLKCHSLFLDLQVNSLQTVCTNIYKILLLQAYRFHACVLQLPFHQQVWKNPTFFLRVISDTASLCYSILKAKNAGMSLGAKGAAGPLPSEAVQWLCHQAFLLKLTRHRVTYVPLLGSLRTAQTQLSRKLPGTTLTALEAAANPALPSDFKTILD

| Structure (SMILES) | Processivity R 1/2 (indicated dNTP at 0.5 μM, Mean) | Processivity R 1/2 [1] | Processivity R 1/2 (indicated dNTP at 1 μM, Mean) | Processivity R 1/2 (indicated dNTP at 1 μM, n1-n3) | Processivity R 1/2 (indicated dNTP at 5 μM, Mean) | Processivity R 1/2 (indicated dNTP at 5 μM, n1-n3) | Processivity R 1/2 (indicated dNTP at 24 μM, Mean) | Processivity R 1/2 (indicated dNTP at 24 μM, n1-n3) | further results |
| --- | --- | --- | --- | --- | --- | --- | --- | --- | --- |
| Nc1nc(O)nc2c1ncn2C1CC(O)C(COP(=O)(O)OP(=O)(O)OP(=O)(O)O)O1 (stereo not shown) [2-OH-dATP] | 0.46 | 0.46 and 0.39 and 0.53 | 0.43 | 0.30 and 0.39 and 0.59 | 0.57 | 0.42 and 0.69 and 0.61 | 0.66 | 0.46 and 0.70 and 0.83 | YIntercept (best-fit line of ln(100-%LB) vs repeat number) (2-OH-dATP 0.5μM, single experiments): 2.12 and 4.01 and 2.03; YIntercept (best-fit line of ln(100-%LB) vs repeat number) (2-OH-dATP 1μM, single experiments): 2.17 and 3.36 and 2.82; ln(100-%LB) (2-OH-dATP 5μM, 1 telomere repeat, single experiments): 1.89 and 1.96 and 2.94; YIntercept (best-fit line of ln(100-%LB) vs repeat number) (2-OH-dATP 5μM, single experiments): 3.87 and 3.78 and 4.14; ln(100-%LB) (2-OH-dATP 25μM, 1 telomere repeat, single experiments): 2.24 and 2.45; ln(100-%LB) (2-OH-dATP 25μM, 2 telomere repeats, single experiments): 0.15 and 0.23; YIntercept (best-fit line of ln(100-%LB) vs repeat number) (2-OH-dATP 25μM, single experiments): 3.63 and 4.14 |
| Nc1nc2c(ncn2C2CC(O)C(COP(=O)(O)OP(=O)(O)OP(=O)(O)O)O2)c(=S)[nH]1 (stereo not shown) [6-thio-dGTP] | 0 | 0 | 0 | 0 | 0 | 0 | 0 | 0 | – |
| Nc1ncnc2c1[nH]c(=O)n2C1CC(O)C(COP(=O)(O)OP(=O)(O)OP(=O)(O)O)O1 (stereo not shown) [8-oxo-dATP] | 0 | 0 | 0 | 0 | 0 | 0 | 0 | 0 | – |
| Nc1nc2c([nH]c(=O)n2C2CC(O)C(COP(=O)(O)OP(=O)(O)OP(=O)(O)O)O2)c(=O)[nH]1 (stereo not shown) [8-oxo-dGTP] | 0 | 0 | 0 | 0 | 0 | 0 | 0 | 0 | – |
| Cc1cn([C@H]2C[C@H](N=[N+]=[N-])[C@@H](CO[P@](=O)(O)O[P@](=O)(O)OP(=O)(O)O)O2)c(=O)[nH]c1=O [AZT-TP] | 0 | 0 | 0 | 0 | 0 | 0 | 0 | 0 | – |
| Nc1ncnc2c1ncn2C1CC(O)C(COP(=O)(O)OP(=O)(O)OP(=O)(O)O)O1 (stereo not shown) [dATP] | 1.28 | 0.99 and 1.34 and 1.51 | 1.47 | 1.33 and 1.42 and 1.67 | 2.10 | 1.66 and 2.20 and 2.43 | 2.21 | 1.90 and 2.36 and 2.37 | YIntercept (line, best-fit value) of ln(100-%LB) vs # telomere repeats (0.5μM titrated dNTP): 4.31 and 3.25 and 4.01; YIntercept (line, best-fit value) of ln(100-%LB) vs # telomere repeats (1μM titrated dNTP): 4.44 and 2.47 and 4.49; ln(100-%LB) (1μM titrated dNTP, telomere repeat 3): 2.47 and 1.35 and 2.09; YIntercept (line, best-fit value) of ln(100-%LB) vs # telomere repeats (5μM titrated dNTP): 4.00 and 3.98 and 2.64; ln(100-%LB) [2]: 3.97 and 2.20; ln(100-%LB) (5μM titrated dNTP, telomere repeat 2): 3.54 and 1.95; ln(100-%LB) (5μM titrated dNTP, telomere repeat 3): 3.04 and 3.01 and 1.68; YIntercept (line, best-fit value) of ln(100-%LB) vs # telomere repeats (25μM titrated dNTP): 3.73 and 2.10; ln(100-%LB) [3]: 3.90 and 2.05 |
| Nc1nc2c(ncn2C2CC(O)C(COP(=O)(O)OP(=O)(O)OP(=O)(O)O)O2)c(=O)[nH]1 (stereo not shown) [dGTP] | 1.69 | 1.96 and 1.27 and 1.84 | 1.78 | 1.97 and 1.53 and 1.85 | 2.39 | – | 5.11 | – | ln(100-%LB) (0.5μM titrated dNTP, telomere repeat 8): -4.24; ln(100-%LB) (0.5μM titrated dNTP, telomere repeat 9): -4.48; ln(100-%LB) (0.5μM titrated dNTP, telomere repeat 10): -4.75; ln(100-%LB) (0.5μM titrated dNTP, telomere repeat 11): -4.99 |
| Cc1cn(C2CC(O)C(COP(=O)(O)OP(=O)(O)OP(=O)(O)O)O2)c(=O)[nH]c1=O (stereo not shown) [dTTP] | 1.28 | 1.27 and 1.42 and 1.15 | 1.90 | 1.45 and 1.97 and 2.27 | 2.06 | 1.59 and 1.96 and 2.62 | 1.95 | – | YIntercept (line, best-fit value) of ln(100-%LB) vs # telomere repeats (0.5μM titrated dNTP): 4.06 and 3.53 and 2.25; YIntercept (line, best-fit value) of ln(100-%LB) vs # telomere repeats (1μM titrated dNTP): 3.61 and 3.41 and 1.82; ln(100-%LB) (1μM titrated dNTP, telomere repeat 1): 3.41 and 3.35 and 1.72; ln(100-%LB) [2]: 1.67 and 3.31 and 3.28; YIntercept (line, best-fit value) of ln(100-%LB) vs # telomere repeats (25μM titrated dNTP): 3.33 and 3.39 and 1.96; ln(100-%LB) [3]: 3.18 and 3.21 and 2.13; ln(100-%LB) (25μM titrated dNTP, telomere repeat 2): 2.32 and 2.36 and 1.43; ln(100-%LB) (25μM titrated dNTP, telomere repeat 3): 1.64 and 1.63 and 0.90 |
| O=c1[nH]cnc2c1ncn2C1CCC(COP(=O)(O)OP(=O)(O)OP(=O)(O)O)O1 (stereo not shown) [ddITP] | 0 | 0 | 0 | 0 | 0 | 0 | 0 | 0 | – |
